The values that follow come from patent US20090170886A1 (Pfizer Inc, priority 2005, published 2009).

The structures appear in SMILES notation. Where a chain is given by its changes, count along the chain named. Read-outs that look alike come from different tables or passages of the source. A value given as a limit tells only on which side of the number the result lay.

For data set [1], the target named is T1, hAR (human androgen receptor, baculovirus/Sf9 generated extracts) (Homo sapiens, UniProt P10275).
T1 construct: made in house; host or cells: baculovirus/Sf9 insect cells (crude extract)
T1 sequence (P10275 1-920): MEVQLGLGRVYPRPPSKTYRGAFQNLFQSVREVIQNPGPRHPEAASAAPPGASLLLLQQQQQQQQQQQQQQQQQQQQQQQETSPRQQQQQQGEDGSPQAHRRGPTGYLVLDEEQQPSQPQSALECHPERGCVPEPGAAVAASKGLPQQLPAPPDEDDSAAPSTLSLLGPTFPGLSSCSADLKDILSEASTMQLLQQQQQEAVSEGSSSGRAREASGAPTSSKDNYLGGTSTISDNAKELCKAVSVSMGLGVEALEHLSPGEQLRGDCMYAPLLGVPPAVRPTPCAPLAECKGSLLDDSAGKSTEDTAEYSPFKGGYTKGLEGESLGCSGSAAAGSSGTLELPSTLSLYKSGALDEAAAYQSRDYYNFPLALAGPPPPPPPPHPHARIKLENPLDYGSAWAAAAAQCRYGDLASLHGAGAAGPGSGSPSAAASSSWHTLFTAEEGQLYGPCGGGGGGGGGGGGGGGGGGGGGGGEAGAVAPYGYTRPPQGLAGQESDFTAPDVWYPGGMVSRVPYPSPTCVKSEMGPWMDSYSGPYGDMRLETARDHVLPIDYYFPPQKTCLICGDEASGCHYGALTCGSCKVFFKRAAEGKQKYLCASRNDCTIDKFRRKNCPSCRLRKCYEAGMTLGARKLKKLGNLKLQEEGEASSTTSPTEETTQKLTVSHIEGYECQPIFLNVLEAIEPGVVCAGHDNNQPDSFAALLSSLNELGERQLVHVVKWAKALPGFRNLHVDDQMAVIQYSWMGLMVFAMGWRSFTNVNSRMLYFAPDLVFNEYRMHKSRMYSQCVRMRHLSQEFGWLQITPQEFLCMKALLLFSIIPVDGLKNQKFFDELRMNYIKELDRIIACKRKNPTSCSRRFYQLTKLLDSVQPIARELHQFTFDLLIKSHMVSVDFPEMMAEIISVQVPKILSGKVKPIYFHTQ
Description: AR Binding Assay (competitive binding with 3H-DHT tracer). Conditions: 1 nM 3H-DHT, one hour at 4° C., mean of multiple tests. In outline: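 Compounds at decreasing concentrations were incubated with baculovirus/Sf9 hAR extract, hydroxylapatite and 1 nM ^3H-DHT for one hour at 4° C., then washed three times. The value is the compound concentration inhibiting half of maximum ^3H-DHT binding, reported as the mean of multiple tests.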

For data set [2], the target named is T2, androgen receptor in MDA-MB453-MMTV clone 54-19 cells (Homo sapiens, UniProt P10275).
T2 sequence (P10275 1-920 Q868H): T1 sequence (P10275 1-920) with Q868H
Description: AR Antagonist Cell Assay (MMTV-luciferase reporter, DHT-induced). The format is cell-based. The conditions noted are these: MDA-MB453-MMTV clone 54-19, 100 pM DHT, 17 hr; mean of multiple tests. In outline:
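MDA-MB453 cells stably carrying an ARE-containing MMTV-luciferase reporter, in phenol red-free medium with 1% charcoal-treated serum, preincubated 30 min with compound (0.32-1000 nM), then stimulated with 100 pM DHT for 17 h at 37 °C. Luminescence read; percent inhibition of DHT fold induction.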

Another data set concerns spinal BMD. The conditions noted are these: after 7 years of treatment; cited from earlier work.
Where [3] appears, read: hAR extract, read-out: AR Binding IC50.

As usually defined, the melting point is the temperature, or range, at which the solid turns liquid. The IC50 is the concentration that inhibits the measured activity by half. In turn, `Cc1cccc(COc2ccc(C#N)cc2Cl)c1` [Example 40, 3-Chloro-4-(3-methyl-benzyloxy)-benzonitrile] gave a melting point of 73 to 75 °C. Also, the IC50 in data set [1] (setting [3]) turned out to be 783 nM. For the compound `N#Cc1ccc(OCC2COc3ccccc3O2)cc1Cl` (centres unmarked) [Example 69, 2-Chloro-4-(2,3-dihydro-benzo[1,4]dioxin-2-ylmethoxy)-benzonitrile], the half-maximal inhibitory concentration (IC50) was above 1000 nM in data set [2] and 108 nM in data set [1] (setting [3]).

As to `CC(C)(Oc1ccc(C#N)c(Cl)c1)c1ccccc1` [Example 70, 2-Chloro-4-(1-methyl-1-phenyl-ethoxy)-benzonitrile], the IC50 in data set [2] was above 1000 nM; in data set [1] (AR Binding IC50, hAR extract), 53 nM. On to `CC(Oc1ccc(C#N)c(Cl)c1)c1ccccc1` (centres unmarked) [Example 71, 2-Chloro-4-(1-phenyl-ethoxy)-benzonitrile], for which the IC50 in data set [2] was 8 nM; in data set [1] (AR Binding IC50, hAR extract), 13 nM. For the compound `COc1cc(OCCc2cccc(F)c2)ccc1C#N` [Example 71B, 4-[2-(3-Fluoro-phenyl)-ethoxy]-2-methoxy-benzonitrile], the 50% inhibitory concentration (IC50) in data set [2] turned out to be 41.4 nM; in data set [1] (setting [3]) it was 155 nM. `COc1cncc(C(C)Oc2ccc(C#N)c(C(F)(F)F)c2)c1` (centres unmarked) [Example 72, 4-[1-(5-Methoxypyridin-3-yl)ethoxy]-2-(trifluoromethyl)benzonitrile]: the IC50 came to 441 nM in data set [2] and 203 nM in data set [1] (setting [3]). As for `CC(Oc1ccc(C#N)c(C(F)(F)F)c1)c1cncc(O)c1` (centres unmarked) [Example 73, 4-[1-(5-Hydroxypyridin-3-yl)ethoxy]-2-(trifluoromethyl)benzonitrile], the results for the concentration for half-maximal inhibition (IC50) in data set [2] and in data set [1] (setting [3]) were 70 nM and 110 nM, respectively. In the case of `N#Cc1ccc(CCOc2ccc(C#N)c(C(F)(F)F)c2)cc1` [Example 75, 4-[2-(4-Cyano-phenyl)-ethoxy]-2-trifluoromethyl-benzonitrile], the IC50 in data set [2] was found to be 55 nM; in data set [1] (AR Binding IC50, hAR extract), 343 nM.

`COc1cccc(CCOc2ccc(C#N)c(C(F)(F)F)c2)c1` [Example 77, 4-[2-(3-Methoxy-phenyl)-ethoxy]-2-trifluoromethyl-benzonitrile]: the half-maximal inhibitory concentration (IC50) in data set [2] was 11 nM; in data set [1] (AR Binding IC50, hAR extract) it was 109 nM.

For `CCCC(Oc1ccc(C#N)c(C(F)(F)F)c1)c1ccccn1` (centres unmarked) [Example 81, 4-(1-Pyridin-2-yl-butoxy)-2-trifluoromethyl-benzonitrile], the IC50 in data set [2] is 280 nM; in data set [1] (AR Binding IC50, hAR extract), 54.3 nM. Consider `N#Cc1ccc(OC(Cc2ccccc2)c2ccccn2)cc1C(F)(F)F` (centres unmarked) [Example 82, 4-(2-Phenyl-1-pyridin-2-yl-ethoxy)-2-trifluoromethyl-benzonitrile], for which the 50% inhibitory concentration (IC50) was above 1000 nM in data set [2] and 238 nM in data set [1] (setting [3]). In the same order, the values of `CC(C)CC(Oc1ccc(C#N)c(C(F)(F)F)c1)c1ccccn1` (centres unmarked) [Example 83, 4-(3-Methyl-1-pyridin-2-yl-butoxy)-2-trifluoromethyl-benzonitrile] are above 1000 nM and 119 nM.

As for `CCCCC(Oc1ccc(C#N)c(C(F)(F)F)c1)c1ccccn1` (centres unmarked) [Example 84, 4-(1-Pyridin-2-yl-pentyloxy)-2-trifluoromethyl-benzonitrile], the IC50 in data set [2] is above 667 nM; in data set [1] (setting [3]), 161 nM. Taken in the same sequence, the figures for `Cc1cccc(C(CC(C)C)Oc2ccc(C#N)c(C(F)(F)F)c2)n1` (centres unmarked) [Example 85, 4-[3-Methyl-1-(6-methyl-pyridin-2-yl)-butoxy]-2-trifluoromethyl-benzonitrile] were above 1000 nM and 167 nM. For `CCC(Oc1ccc(C#N)c(C(F)(F)F)c1)c1cccnc1` (centres unmarked) [Example 90, 4-(1-Pyridin-3-yl-propoxy)-2-trifluoromethyl-benzonitrile], the IC50 in data set [2] came out at 142 nM; in data set [1] (setting [3]) it was 167 nM. In the case of `N#Cc1ccc(OC(Cc2ccccc2)c2cccnc2)cc1C(F)(F)F` (centres unmarked) [Example 91, 4-(2-Phenyl-1-pyridin-3-yl-ethoxy)-2-trifluoromethyl-benzonitrile], the IC50 was found to be 342 nM in data set [2] and 116 nM in data set [1] (setting [3]).

As to `CCCC(Oc1ccc(C#N)c(C(F)(F)F)c1)c1cncc(OCOCCOC)c1` (centres unmarked) [Example 92], the IC50 in data set [2] was above 934 nM; in data set [1] (AR Binding IC50, hAR extract) it was 74 nM. Taken in the same sequence, the figures for `COCCOCOc1cncc(C(CC(C)C)Oc2ccc(C#N)c(C(F)(F)F)c2)c1` (centres unmarked) [Example 93, 4-{1-[5-(2-Methoxy-ethoxymethoxy)-pyridin-3-yl]-3-methyl-butoxy}-2-trifluoromethyl-benzonitrile] were 202 nM and 98 nM. Taken in the same sequence, the figures for `CCC(Oc1ccc(C#N)c(C(F)(F)F)c1)c1cncc(O)c1` (centres unmarked) [Example 94, 4-[1-(5-Hydroxy-pyridin-3-yl)-propoxy]-2-trifluoromethyl-benzonitrile] were 202 nM and 75 nM. Regarding `CCCC(Oc1ccc(C#N)c(C(F)(F)F)c1)c1cncc(O)c1` (centres unmarked) [Example 95, 4-[1-(5-Hydroxy-pyridin-3-yl)-butoxy]-2-trifluoromethyl-benzonitrile], the IC50 in data set [2] was 37 nM; in data set [1] (AR Binding IC50, hAR extract), 68 nM. Consider `NCCCC(O)(P(=O)(O)O)P(=O)(O)O` [alendronate], for which the “increase in spinal BMD” value in the data set on spinal BMD is on record as at most 11%.
